Results reported in publication PMC6032158, “Structure–Activity Relationship of Piplartine and Synthetic Analogues against Schistosoma mansoni and Cytotoxicity to Mammalian Cells” (International Journal of Molecular Sciences, 2018).
“Also recorded” adds a separate entry of the source.

Legend:
[1] = test system: murine fibroblast (NIH-3T3) cells; test: MTT cytotoxicity assay in murine fibroblasts; type: cell-based
Procedure, shortened: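 NIH-3T3 cells exposed 24 h to samples at 25–800 µg/mL in 3% DMSO, with 3% DMSO as control. MTT (5 mg/mL stock) added for 2 h, formazan dissolved in DMSO, absorbance read at 595 nm.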

[2] = test system: J774A.1 cells; test: Cell death mechanism, annexin-V FITC / propidium iodide staining by flow cytometry; type: cell-based, mouse; conditions: J774A.1, 24 h; piplartine 25 μg/mL, 14B 400 μg/mL
Experimental: Cells were then treated with 2 µL of annexin-V FITC (Apoptosis Detection Kit; BD Biosciences, Franklin Lakes, NJ, USA) and 2 µL of propidium iodide (PI, 50 µg/mL) for 15 min in the dark at room temperature. Next, 100 µL binding buffer was added and samples were analysed by flow cytometry (BD LSFortessa^TM, Franklin Lakes, NJ, USA). A total of 20,000 events were collected per sample.

[3] = test system: 49-day-old S. mansoni adult worms; test: In vitro experiments with adult worms of S. mansoni (mortality, motor activity); type: cell-based, Schistosoma mansoni; conditions: for Dead Worms (%) F / Motor Activity Reduction (%) Significant F / Motor Activity Reduction (%) Slight F: female worms; for Dead Worms (%) M / Motor Activity Reduction (%) Significant M / Motor Activity Reduction (%) Slight M: male worms
Procedure, shortened: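 BH-strain worm pairs recovered from hamsters 49 days post-infection, washed in RPMI 1640 with penicillin, streptomycin and amphotericin B, and cultured as mated pairs with or without drug for 96 h. Motor activity changes and death were scored by microscopy.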

SMILES: O=C(/C=C/c1ccc2c(c1)OCO2)N1CCCC1 [Compound 14B]
- effect on NIH-3T3 cell viability (in words) ([1]; MTT, 24 h exposure, 25 to 800 µg/mL): considerable reduction in cell viability at concentrations of 400 and 800 μg/mL; also recorded: showed toxicity at 200, 400 and 800 μg/mL
- Emax at 800 µg/mL ([1]; Mus musculus, NIH3T3, 24 h, decrease in cell viability at the maximum concentration tested (800 μg/mL), NIH-3T3, 24 h): 83.64 ± 0.47%
- annexin-V FITC staining (apoptosis marker) vs DMEM negative control (in words) [2]: significant (p < 0.05) increase in annexin-V FITC staining
- Dead Worms (%) F ([3]; 5 µM, 24 h): 0%
- Motor Activity Reduction (%) Significant F ([3]; 5 µM, 24 h): 0%
- Motor Activity Reduction (%) Slight F ([3]; 5 µM, 24 h): 0%
- Dead Worms (%) M ([3]; 5 µM, 24 h): 0%
- Motor Activity Reduction (%) Significant M ([3]; 5 µM, 24 h): 0%
- Motor Activity Reduction (%) Slight M ([3]; 5 µM, 24 h): 0%
- Dead Worms (%) F ([3]; 5 µM, 48 h): 0%
- Motor Activity Reduction (%) Significant F ([3]; 5 µM, 48 h): 0%
- Motor Activity Reduction (%) Slight F ([3]; 5 µM, 48 h): 0%
- Dead Worms (%) M ([3]; 5 µM, 48 h): 0%
- Motor Activity Reduction (%) Significant M ([3]; 5 µM, 48 h): 0%
- Motor Activity Reduction (%) Slight M ([3]; 5 µM, 48 h): 0%
- Dead Worms (%) F ([3]; 5 µM, 72 h): 0%
- Motor Activity Reduction (%) Significant F ([3]; 5 µM, 72 h): 0%
- Motor Activity Reduction (%) Slight F ([3]; 5 µM, 72 h): 0%
- Dead Worms (%) M ([3]; 5 µM, 72 h): 0%
- Motor Activity Reduction (%) Significant M ([3]; 5 µM, 72 h): 0%
- Motor Activity Reduction (%) Slight M ([3]; 5 µM, 72 h): 0%
- Dead Worms (%) F ([3]; 5 µM, 96 h): 0%
- Motor Activity Reduction (%) Significant F ([3]; 5 µM, 96 h): 0%
- Motor Activity Reduction (%) Slight F ([3]; 5 µM, 96 h): 0%
- Dead Worms (%) M ([3]; 5 µM, 96 h): 0%
- Motor Activity Reduction (%) Significant M ([3]; 5 µM, 96 h): 0%
- Motor Activity Reduction (%) Slight M ([3]; 5 µM, 96 h): 0%
- Dead Worms (%) F ([3]; 10 µM, 24 h): 0%
- Motor Activity Reduction (%) Significant F ([3]; 10 µM, 24 h): 0%
- Motor Activity Reduction (%) Slight F ([3]; 10 µM, 24 h): 0%
- Dead Worms (%) M ([3]; 10 µM, 24 h): 0%
- Motor Activity Reduction (%) Significant M ([3]; 10 µM, 24 h): 0%
- Motor Activity Reduction (%) Slight M ([3]; 10 µM, 24 h): 0%
- Dead Worms (%) F ([3]; 10 µM, 48 h): 0%
- Motor Activity Reduction (%) Significant F ([3]; 10 µM, 48 h): 0%
- Motor Activity Reduction (%) Slight F ([3]; 10 µM, 48 h): 0%
- Dead Worms (%) M ([3]; 10 µM, 48 h): 0%
- Motor Activity Reduction (%) Significant M ([3]; 10 µM, 48 h): 0%
- Motor Activity Reduction (%) Slight M ([3]; 10 µM, 48 h): 0%
- Dead Worms (%) F ([3]; 10 µM, 72 h): 0%
- Motor Activity Reduction (%) Significant F ([3]; 10 µM, 72 h): 0%
- Motor Activity Reduction (%) Slight F ([3]; 10 µM, 72 h): 0%
- Dead Worms (%) M ([3]; 10 µM, 72 h): 0%
- Motor Activity Reduction (%) Significant M ([3]; 10 µM, 72 h): 0%
- Motor Activity Reduction (%) Slight M ([3]; 10 µM, 72 h): 0%
- Dead Worms (%) F ([3]; 10 µM, 96 h): 0%
- Motor Activity Reduction (%) Significant F ([3]; 10 µM, 96 h): 0%
- Motor Activity Reduction (%) Slight F ([3]; 10 µM, 96 h): 0%
- Dead Worms (%) M ([3]; 10 µM, 96 h): 0%
- Motor Activity Reduction (%) Significant M ([3]; 10 µM, 96 h): 0%
- Motor Activity Reduction (%) Slight M ([3]; 10 µM, 96 h): 0%
- Dead Worms (%) F ([3]; 25 µM, 24 h): 0%
- Motor Activity Reduction (%) Significant F ([3]; 25 µM, 24 h): 0%
- Motor Activity Reduction (%) Slight F ([3]; 25 µM, 24 h): 0%
- Dead Worms (%) M ([3]; 25 µM, 24 h): 0%
- Motor Activity Reduction (%) Significant M ([3]; 25 µM, 24 h): 0%
- Motor Activity Reduction (%) Slight M ([3]; 25 µM, 24 h): 0%
- Dead Worms (%) F ([3]; 25 µM, 48 h): 0%
- Motor Activity Reduction (%) Significant F ([3]; 25 µM, 48 h): 0%
- Motor Activity Reduction (%) Slight F ([3]; 25 µM, 48 h): 0%
- Dead Worms (%) M ([3]; 25 µM, 48 h): 0%
- Motor Activity Reduction (%) Significant M ([3]; 25 µM, 48 h): 0%
- Motor Activity Reduction (%) Slight M ([3]; 25 µM, 48 h): 0%
- Dead Worms (%) F ([3]; 25 µM, 72 h): 0%
- Motor Activity Reduction (%) Significant F ([3]; 25 µM, 72 h): 0%
- Motor Activity Reduction (%) Slight F ([3]; 25 µM, 72 h): 0%
- Dead Worms (%) M ([3]; 25 µM, 72 h): 0%
- Motor Activity Reduction (%) Significant M ([3]; 25 µM, 72 h): 0%
- Motor Activity Reduction (%) Slight M ([3]; 25 µM, 72 h): 0%
- Dead Worms (%) F ([3]; 25 µM, 96 h): 0%
- Motor Activity Reduction (%) Significant F ([3]; 25 µM, 96 h): 0%
- Motor Activity Reduction (%) Slight F ([3]; 25 µM, 96 h): 0%
- Dead Worms (%) M ([3]; 25 µM, 96 h): 0%
- Motor Activity Reduction (%) Significant M ([3]; 25 µM, 96 h): 0%
- Motor Activity Reduction (%) Slight M ([3]; 25 µM, 96 h): 0%
- Dead Worms (%) F ([3]; 50 µM, 24 h): 0%
- Motor Activity Reduction (%) Significant F ([3]; 50 µM, 24 h): 0%
- Motor Activity Reduction (%) Slight F ([3]; 50 µM, 24 h): 0%
- Dead Worms (%) M ([3]; 50 µM, 24 h): 0%
- Motor Activity Reduction (%) Significant M ([3]; 50 µM, 24 h): 0%
- Motor Activity Reduction (%) Slight M ([3]; 50 µM, 24 h): 0%
- Dead Worms (%) F ([3]; 50 µM, 48 h): 0%
- Motor Activity Reduction (%) Significant F ([3]; 50 µM, 48 h): 0%
- Motor Activity Reduction (%) Slight F ([3]; 50 µM, 48 h): 0%
- Dead Worms (%) M ([3]; 50 µM, 48 h): 0%
- Motor Activity Reduction (%) Significant M ([3]; 50 µM, 48 h): 0%
- Motor Activity Reduction (%) Slight M ([3]; 50 µM, 48 h): 0%
- Dead Worms (%) F ([3]; 50 µM, 72 h): 0%
- Motor Activity Reduction (%) Significant F ([3]; 50 µM, 72 h): 0%
- Motor Activity Reduction (%) Slight F ([3]; 50 µM, 72 h): 0%
- Dead Worms (%) M ([3]; 50 µM, 72 h): 0%
- Motor Activity Reduction (%) Significant M ([3]; 50 µM, 72 h): 0%
- Motor Activity Reduction (%) Slight M ([3]; 50 µM, 72 h): 0%
- Dead Worms (%) F ([3]; 50 µM, 96 h): 0%
- Motor Activity Reduction (%) Significant F ([3]; 50 µM, 96 h): 0%
- Motor Activity Reduction (%) Slight F ([3]; 50 µM, 96 h): 0%
- Dead Worms (%) M ([3]; 50 µM, 96 h): 0%
- Motor Activity Reduction (%) Significant M ([3]; 50 µM, 96 h): 0%
- Motor Activity Reduction (%) Slight M ([3]; 50 µM, 96 h): 0%
- activity against S. mansoni adult worms (in words) ([3]; analogues 50, 25, 10 and 5 μM, piplartine 5 and 10 μM, up to 96 h): loss of biological activity against S. mansoni

SMILES: OO [Compound H2O2, hydrogen peroxide, reference compound]
- annexin-V FITC staining (apoptosis marker) vs DMEM negative control (in words) [2]: significant (p < 0.05) increase in annexin-V FITC fluorescence intensity
